Key:
Test in all cases: fluorescent HDAC activity assay (BIOMOL kit) with purified HDAC
Assay type in all cases: biochemical
[1] = molecular target: HDAC1 (Homo sapiens, UniProt Q13547)
[2] = molecular target: T1, HDAC 3 (Homo sapiens, UniProt O15379)
T1 construct: gene HDAC3

[3] = molecular target: HDAC4 (Homo sapiens, UniProt P56524)
[4] = molecular target: HDAC5 (Homo sapiens, UniProt Q9UQL6)
[5] = molecular target: HDAC2 (Homo sapiens, UniProt Q92769)
[6] = molecular target: T2, HDAC6 (Homo sapiens, UniProt Q9UBN7)
T2 sequence (Q9UBN7 1-1215): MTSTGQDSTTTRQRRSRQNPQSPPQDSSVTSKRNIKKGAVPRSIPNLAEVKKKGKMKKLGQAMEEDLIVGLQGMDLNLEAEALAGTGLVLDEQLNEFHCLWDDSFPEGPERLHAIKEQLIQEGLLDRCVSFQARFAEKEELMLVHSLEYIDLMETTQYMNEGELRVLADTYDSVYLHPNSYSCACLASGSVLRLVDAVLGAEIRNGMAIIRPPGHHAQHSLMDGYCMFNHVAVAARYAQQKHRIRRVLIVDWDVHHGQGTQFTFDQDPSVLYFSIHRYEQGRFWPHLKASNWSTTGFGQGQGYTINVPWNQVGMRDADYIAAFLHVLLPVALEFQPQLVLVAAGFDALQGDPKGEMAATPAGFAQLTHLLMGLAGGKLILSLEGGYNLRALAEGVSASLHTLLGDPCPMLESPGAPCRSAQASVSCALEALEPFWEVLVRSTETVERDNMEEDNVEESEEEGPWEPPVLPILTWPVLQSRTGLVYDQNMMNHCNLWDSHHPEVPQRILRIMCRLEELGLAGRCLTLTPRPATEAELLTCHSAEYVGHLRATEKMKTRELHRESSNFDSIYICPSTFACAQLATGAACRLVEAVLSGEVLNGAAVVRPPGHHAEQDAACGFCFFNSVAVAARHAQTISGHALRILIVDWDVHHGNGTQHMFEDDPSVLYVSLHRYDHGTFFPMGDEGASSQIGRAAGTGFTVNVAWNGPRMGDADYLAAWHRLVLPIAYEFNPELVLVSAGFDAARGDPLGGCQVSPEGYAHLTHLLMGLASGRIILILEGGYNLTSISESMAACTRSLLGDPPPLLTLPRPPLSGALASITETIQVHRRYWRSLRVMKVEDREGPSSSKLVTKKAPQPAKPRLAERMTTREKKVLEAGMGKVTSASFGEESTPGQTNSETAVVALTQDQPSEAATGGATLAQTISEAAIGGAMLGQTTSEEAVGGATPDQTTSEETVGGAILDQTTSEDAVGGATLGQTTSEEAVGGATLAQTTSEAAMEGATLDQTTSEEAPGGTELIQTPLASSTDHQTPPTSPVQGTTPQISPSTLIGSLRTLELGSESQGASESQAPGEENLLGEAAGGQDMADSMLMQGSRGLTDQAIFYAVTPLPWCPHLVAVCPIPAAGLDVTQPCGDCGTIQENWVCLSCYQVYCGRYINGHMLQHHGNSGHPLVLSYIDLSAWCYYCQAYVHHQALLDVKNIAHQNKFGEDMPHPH

HDAC4, sequence (P56524 whole entry): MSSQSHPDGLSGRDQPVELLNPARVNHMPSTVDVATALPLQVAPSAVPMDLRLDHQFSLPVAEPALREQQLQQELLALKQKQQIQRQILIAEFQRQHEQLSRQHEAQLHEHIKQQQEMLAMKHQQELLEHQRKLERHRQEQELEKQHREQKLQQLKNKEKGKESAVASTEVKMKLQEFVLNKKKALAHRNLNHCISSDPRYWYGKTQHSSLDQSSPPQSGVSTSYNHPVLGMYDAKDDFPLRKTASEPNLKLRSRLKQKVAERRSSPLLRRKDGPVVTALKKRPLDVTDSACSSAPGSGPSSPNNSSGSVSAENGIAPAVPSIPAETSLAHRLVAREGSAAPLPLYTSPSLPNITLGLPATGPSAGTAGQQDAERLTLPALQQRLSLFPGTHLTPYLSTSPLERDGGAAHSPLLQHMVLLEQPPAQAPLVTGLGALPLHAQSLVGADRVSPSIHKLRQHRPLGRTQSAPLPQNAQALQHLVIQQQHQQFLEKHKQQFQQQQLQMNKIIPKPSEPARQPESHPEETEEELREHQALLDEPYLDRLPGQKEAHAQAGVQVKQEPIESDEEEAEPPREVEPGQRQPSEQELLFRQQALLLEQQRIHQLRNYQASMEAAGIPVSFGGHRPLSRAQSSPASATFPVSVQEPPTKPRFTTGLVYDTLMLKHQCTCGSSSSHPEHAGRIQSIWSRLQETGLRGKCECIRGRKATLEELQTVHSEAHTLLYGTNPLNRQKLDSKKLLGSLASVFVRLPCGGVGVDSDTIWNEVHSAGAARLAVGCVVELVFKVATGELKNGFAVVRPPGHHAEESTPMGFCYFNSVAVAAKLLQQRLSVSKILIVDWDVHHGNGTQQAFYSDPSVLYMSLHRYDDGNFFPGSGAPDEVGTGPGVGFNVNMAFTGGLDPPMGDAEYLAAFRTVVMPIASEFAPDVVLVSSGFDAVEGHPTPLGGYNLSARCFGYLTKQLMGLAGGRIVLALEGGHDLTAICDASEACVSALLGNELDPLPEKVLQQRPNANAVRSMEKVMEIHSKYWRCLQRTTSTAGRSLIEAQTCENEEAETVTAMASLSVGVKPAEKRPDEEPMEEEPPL
T1 sequence (O15379 whole entry): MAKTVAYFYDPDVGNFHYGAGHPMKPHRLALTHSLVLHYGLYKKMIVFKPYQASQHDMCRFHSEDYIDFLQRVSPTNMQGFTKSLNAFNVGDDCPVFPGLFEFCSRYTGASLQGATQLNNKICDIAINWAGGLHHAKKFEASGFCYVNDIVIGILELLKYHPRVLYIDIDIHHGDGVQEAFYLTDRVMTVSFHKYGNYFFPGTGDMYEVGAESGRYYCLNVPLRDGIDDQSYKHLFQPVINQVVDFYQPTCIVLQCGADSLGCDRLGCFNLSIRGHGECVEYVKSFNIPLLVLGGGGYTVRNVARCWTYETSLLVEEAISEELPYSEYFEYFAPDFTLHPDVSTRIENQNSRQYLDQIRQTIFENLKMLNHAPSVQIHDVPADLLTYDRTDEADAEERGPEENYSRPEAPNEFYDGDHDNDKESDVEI
HDAC5, sequence (Q9UQL6 whole entry): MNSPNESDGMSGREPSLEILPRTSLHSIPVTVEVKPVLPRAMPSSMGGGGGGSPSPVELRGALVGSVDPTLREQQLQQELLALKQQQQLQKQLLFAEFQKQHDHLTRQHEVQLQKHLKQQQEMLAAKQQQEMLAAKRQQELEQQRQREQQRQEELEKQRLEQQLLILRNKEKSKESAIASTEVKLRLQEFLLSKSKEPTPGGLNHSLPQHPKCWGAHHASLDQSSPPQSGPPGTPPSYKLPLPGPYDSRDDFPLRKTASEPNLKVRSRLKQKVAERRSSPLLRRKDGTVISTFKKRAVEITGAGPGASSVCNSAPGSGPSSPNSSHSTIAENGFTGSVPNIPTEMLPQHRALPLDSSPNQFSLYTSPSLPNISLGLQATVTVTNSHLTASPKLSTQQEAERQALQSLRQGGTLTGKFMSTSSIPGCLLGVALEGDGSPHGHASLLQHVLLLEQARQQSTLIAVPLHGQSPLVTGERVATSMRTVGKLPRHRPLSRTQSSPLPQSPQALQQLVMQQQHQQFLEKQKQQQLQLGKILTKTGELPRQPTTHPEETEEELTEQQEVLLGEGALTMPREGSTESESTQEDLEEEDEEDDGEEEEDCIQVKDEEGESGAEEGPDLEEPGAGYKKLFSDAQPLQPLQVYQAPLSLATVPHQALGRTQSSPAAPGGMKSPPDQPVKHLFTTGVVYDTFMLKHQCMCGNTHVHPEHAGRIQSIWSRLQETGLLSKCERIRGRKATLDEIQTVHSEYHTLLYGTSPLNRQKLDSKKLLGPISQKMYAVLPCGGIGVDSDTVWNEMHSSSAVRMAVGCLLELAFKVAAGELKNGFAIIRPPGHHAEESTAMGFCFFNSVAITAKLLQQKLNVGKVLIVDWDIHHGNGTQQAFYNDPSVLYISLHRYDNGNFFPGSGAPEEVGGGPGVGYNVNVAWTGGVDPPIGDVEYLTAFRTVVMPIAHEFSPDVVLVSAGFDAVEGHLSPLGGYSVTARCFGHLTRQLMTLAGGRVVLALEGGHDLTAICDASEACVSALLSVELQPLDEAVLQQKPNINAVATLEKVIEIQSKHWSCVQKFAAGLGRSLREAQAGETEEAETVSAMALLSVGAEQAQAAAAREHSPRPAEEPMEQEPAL
HDAC1, sequence (Q13547 whole entry): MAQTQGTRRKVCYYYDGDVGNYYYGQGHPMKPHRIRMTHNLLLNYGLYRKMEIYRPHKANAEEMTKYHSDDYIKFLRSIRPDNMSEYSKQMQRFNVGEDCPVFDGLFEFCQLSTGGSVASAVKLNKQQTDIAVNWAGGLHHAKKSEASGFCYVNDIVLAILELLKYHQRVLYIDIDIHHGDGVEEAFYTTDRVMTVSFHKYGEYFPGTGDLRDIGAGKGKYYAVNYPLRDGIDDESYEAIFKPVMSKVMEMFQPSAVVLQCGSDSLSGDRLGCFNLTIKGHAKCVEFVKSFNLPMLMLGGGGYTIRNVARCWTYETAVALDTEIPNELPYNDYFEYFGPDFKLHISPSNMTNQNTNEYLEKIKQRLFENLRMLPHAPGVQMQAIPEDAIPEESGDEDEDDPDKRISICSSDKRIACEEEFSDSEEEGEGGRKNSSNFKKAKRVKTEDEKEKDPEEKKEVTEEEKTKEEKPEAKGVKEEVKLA
HDAC2, sequence (Q92769 whole entry): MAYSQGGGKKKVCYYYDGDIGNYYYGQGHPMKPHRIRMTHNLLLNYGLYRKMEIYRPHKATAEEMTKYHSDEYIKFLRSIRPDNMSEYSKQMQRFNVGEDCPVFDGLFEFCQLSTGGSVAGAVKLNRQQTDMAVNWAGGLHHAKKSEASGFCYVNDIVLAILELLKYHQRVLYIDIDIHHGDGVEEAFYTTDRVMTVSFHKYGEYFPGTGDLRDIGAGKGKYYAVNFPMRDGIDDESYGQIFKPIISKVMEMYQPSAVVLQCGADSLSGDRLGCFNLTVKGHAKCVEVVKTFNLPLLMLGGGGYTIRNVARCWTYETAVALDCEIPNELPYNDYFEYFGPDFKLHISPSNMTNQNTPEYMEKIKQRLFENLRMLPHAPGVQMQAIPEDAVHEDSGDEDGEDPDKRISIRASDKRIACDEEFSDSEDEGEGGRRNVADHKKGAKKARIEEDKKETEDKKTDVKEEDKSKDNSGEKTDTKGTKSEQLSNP

IC50 [1]: 450 to 1390 nM | IC50 [2]: 450 to 1390 nM | IC50 [3]: 450 to 1390 nM | IC50 [4]: 450 to 1390 nM | IC50 [5]: 450 to 1390 nM | IC50 [6]: 450 to 1390 nM
Substance: PAC-320
